{"source": "patent US20160206579A1", "about": "(INSERM (Institut National de la Santé et de la Recherche …, priority 2009, published 2016)", "key": {"[1]": {"tested_on": "RGCs in rat retinal explants", "assay": "NMDA-treated retinal explants, Brn-3a-immunopositive RGC density on flat-mounts", "conditions": "for RGC density (Brn-3a-immunopositive): mean±s.e.m.", "procedure": "E) Quantification of RGC densities from whole flat-mounted retinal explants using the automated counting platform. […] The scale bar represents 100 μm.\nAt the end of the incubation, RGCs were immunolabeled with an anti-Brn-3a antibody."}, "optic nerve": {"tested_on": "optic nerve", "conditions": "treated infants; Frisen and Malmgren 2003, Viestenz et al. 2003, Buncic et al. 2004; cited from earlier work"}, "retinal ganglion cells [2]": {"tested_on": "retinal ganglion cells", "assay": "Retinal ganglion cell degeneration induced by vigabatrin in young rats, Brn3A-positive RGC count in retinal sections", "type": "in vivo, Wistar rats", "procedure": "Breeds of Wistar rats Rj Wi IOPS Han were purchased from Janvier (Le Genest-St-Isle, France). Vigabatrin (VGB) dissolved in 0.9% NaCl was administered at 0.6 mg/jour (6 mg/ml, 0.1 ml) to rats by daily intraperitoneal injection for 25 days from age 4 days. These daily doses (50 mg/kg for rats of 12 g) are in-line with those described for the treatment of epilepsy (adult patients: […]; children:50-75 mg/kg; or infants: 100-150 mg/kg) (Aicardi et al., 1996; Chiron et al., 1997; Lux et al., 2004).\nAnimals were anesthetized by intraperitoneal injection (0.8 to 1.2 ml/kg) of a solution containing ketamine (40 mg/ml) and xylazine (4 mg/ml Rompum). They were then perfused first with heparin 1000 UI/ml in saline solution (0.9% NaCl), then with fixative containing 4% Paraformaldehyde (Merck chemicals ref.: 100496) and 0.2% glutaraldehyde (fluka 25%). Eye cups were isolated and fixed overnight at 4° C. in 4% (wt/vol) paraformaldehyde in phosphate buffered saline (PBS; 0.01M, pH 7.4). The tissue was cryoprotected in successive solutions of PBS containing 10%, 20% and 30% sucrose at 4° C., oriented along the dorso-ventral axis and embedded in OCT (Labonord, Villeneuve d'Ascq, France). Retinal sections (8-10 μm thickness) were permeabilised for five minutes in PBS containing 0.1% Triton X-100 (Sigma, St. Louis, Mo.), rinsed, and incubated in PBS containing 1% bovine serum albumin (Eurobio, Les-Ulis, France), 0.1% Tween 20 (Sigma), and 0.1% sodium azide (Merck, Fontenay-Sous-Bois, France) for two hours at room temperature. The primary Brn3A monoclonal antibody (Chemicon) was added to the solution and incubated for two hours at room temperature. Sections were rinsed and then incubated with the secondary antibody, rabbit anti-mouse IgG conjugated to either Alexa™594 (1:500, Molecular Probes) for two hours. […] Quantifications were achieved on whole vertical sections cut along the dorso-ventral axis and crossing the optic nerve. […]"}, "[3]": {"tested_on": "glutamate N-methyl-D-aspartate (NMDA) receptors", "conditions": "Seki M et al., 2008; cited from earlier work"}, "retinal ganglion cells [4]": {"tested_on": "retinal ganglion cells", "assay": "DBA/2J mice, model of pigmentary glaucoma (taurine plasma level, photopic ERG)", "type": "in vivo", "conditions": "12-month old DBA/2J mice, taurine supplementation for 4 months vs pure water", "protocol": "Photopic ERGs were performed on cauterized and control eyes from rats and DBA2/J mice. Animals were anesthetized by an intramuscular injection with a solution containing a mixture of Ketamine (100 mg/Kg) and, Xylazine (10 mg/Kg). Pupils were dilated by a topical application of Mydriaticum, Laboratoires Thea, Clermont-Ferrand, France). ERG were recorded using two gold loop electrodes were placed on the corneal surface of each eye and maintained with 3% Ocry-gel. These recording electrodes were respectively referenced with two steel electrodes, inserted sub-cuteanously at the level of each cheek of animals. A needle electrode, also inserted sub-cuteanously, at the level of the basis of the tail served as ground. Responses to light stimulus were amplified, filtered and digitalized using the “Multiliner vision” program.\nStatistical analysis of the results was performed on raw data. An unpaired student t test was used to compare means of 2 groups. For more than 2 groups compared, a one-way ANOVA was used for variance analysis, followed in case of significance by a Bonferroni post-hoc test to compare the means of each group. Differences were considered significant at *P<0.05; **P<0.01; and ***P<0.001."}, "retinal ganglion cells [5]": {"tested_on": "retinal ganglion cells", "assay": "Episcleral vein occlusion rat model of glaucoma (taurine plasma level, IOP, photopic ERG, Brn-3a RGC count)", "type": "in vivo, Long-Evans rats", "conditions": "taurine 0.2 M in drinking water, 3 months after occlusion, vs water animals; statistically significant", "protocol": "Long-Evans rats (8-week old) were purchased from Janvier (Le Genest-St-Isle, France) whereas DBA/2J mice (8-month old) were purchased from Charles River (Larbresle, France). Heterozygous P23H rats (line 1) and Sprague Dawley rats (n=7) were bred at Charles River (Saint Aubin-les-Elbeuf, France).\nOcclusion of episcleral veins was performed on 8 week-old Long-Evans or Wistar rats as described previously (Mittag et al., 2000). Animals were anesthetized with a mixture Ketamine (100 mg/Kg; Virbac, France) and, Xylazine (10 mg/Kg; Bayer, Leverkusen, Germany), and a local anesthesia (Tetracaine, Laboratoires TVM, Lempdes, France) were administrated on the cornea. At the level of the right eye, three episcleral veins, superonasal, superotemporal and inferotemporal, were emerged by removing the conjunctive tissue. Vein occlusion was realized by cauterization, using Aesculap® bipolar forceps (B. Braun, Melsungen, Germany). […]\nIOP was measured from right and left eyes on awake animals using a Tonolab tonometer (Icare, Helsinki, Finland). The tonometer was applied perpendicularly to the cornea and three successive measures were recorded and the average was taken for the final value of IOP.\nPhotopic ERGs were performed on cauterized and control eyes from rats and DBA2/J mice. […] ERG were recorded using two gold loop electrodes were placed on the corneal surface of each eye and maintained with 3% Ocry-gel. […]"}, "[6]": {"tested_on": "pure adult rat RGC in culture", "assay": "Survival of pure cultured retinal ganglion cells (live-dead viability test, 6 DIV vs 1 DIV)", "type": "cell-based, Long Evans rat", "conditions": "1 mM taurine, 6 days in culture", "description": "Primary cultures of pure ganglion cells: Primary cultures of retinal ganglion cells (RGC) were isolated from retinae of adult Long Evans rat (8-week old) with an immunopanning technique, according the protocol previously described in young rats by Barres et al. (1988). Briefly, animals were anesthetized and killed by cerebral dislocation and their eyes removed and placed in a solution of phosphate-buffered saline (PBS) containing 1 g/1 of glucose (PBS-glucose; Invitrogen, Carlsbad, Calif., USA). After one rinse in PBS-glucose, retinae were incubated in the same medium containing 33 UI/ml of papain (Worthington, Lakewood, N.J., USA) and 200 UI/ml of DNAse (Sigma-Aldrich, St-Louis, MO, USA) for 30 min at 37° C. They were then rinsed in PBS-glucose, containing 0.15% ovomucoid (Roche Diagnosis, Basel, Switzerland) and 0.15% bovine serum albumin (BSA; Sigma-Aldrich). […]\nRGC viability was assessed with the “lived-dead” test (Invitrogen), which consists in labelling viable cells with calcein AM detected as a green fluorescence, whereas dead cell were labelled with ethidium producing a red fluorescence. […] Only lived RCG were counted from seven fields taken on each coverslip using a microscope (Leica DM 5000B, Solms, Germany) equipped for epifluorescence. Viable RCG were counted at 1 day in vitro (DIV) and 6 DIV to calculate the percentage of cell survival."}, "retinal ganglion cells [7]": {"tested_on": "retinal ganglion cells", "assay": "P23H rat model of retinitis pigmentosa, Brn3a immunopositive RGC count in retinal sections", "type": "in vivo, heterozygous P23H rats", "description": "Long-Evans rats (8-week old) were purchased from Janvier (Le Genest-St-Isle, France) whereas DBA/2J mice (8-month old) were purchased from Charles River (Larbresle, France). Heterozygous P23H rats and Sprague Dawley rats (n=7) were bred at Charles River (Saint Aubin-les-Elbeuf, France). For taurine supplementation, animals were divided in two groups: a control group and a group receiving taurine in its drinking water. […] Animals drinking water without added taurine were always considered as control animals.\nAnimals were anesthetized and killed by cerebral dislocation and their eyes were removed and placed into a fixative solution containing 4% paraformaldehyde (Merck chemicals, Darmstadt, Germany) for 24 hours. Eye cups were isolated and cryoprotected in successive solutions of PBS containing 10%, 20% and 30% sucrose at 4° C., oriented along the dorso-ventral axis and embedded in NEG50® (Microm, Francheville, France). Retinal sections were permeabilized for five minutes in PBS containing 0.1% Triton X-100 (Sigma, St. Louis, Mo.), rinsed, and incubated in PBS containing 1% bovine serum albumin (Sigma) and 0.05% Tween 20 (Sigma) for one hour at room temperature. […] Quantifications were achieved on whole vertical sections cut along the dorso-ventral axis and crossing the optic nerve. […]"}}}
{"smiles": "CN[C@H](CC(=O)O)C(=O)O", "note": "[NMDA, N-methyl-D-aspartate, reference compound]", "values": [{"measurement": "RGC density (Brn-3a-immunopositive)", "setting": "[1]; 100 μM NMDA for 4 days, control 996.0±26.5, n=31", "result": "555.6±31.8", "unit": "cells/mm2"}, {"measurement": "reduction in RGC density vs control", "setting": "[1]; 100 μM NMDA for 4 days, p<0.001", "result": "−44", "unit": "%"}]}
{"smiles": "C=CC(N)CCC(=O)O", "note": "(stereo not drawn) [VGB, Vigabatrin]", "values": [{"measurement": "optic nerve atrophy", "setting": "optic nerve", "result": "induced an optic nerve atrophy"}, {"measurement": "decrease in number of retinal ganglion cells vs control", "setting": "retinal ganglion cells [2]; young rats treated with VGB, p<0.001", "result": 56, "unit": "%"}, {"measurement": "number of retinal ganglion cells (Brn3A-positive, retinal sections)", "setting": "retinal ganglion cells [2]; young rats, VGB 0.6 mg/day i.p. for 25 days from age 4 days, control 15.06±0.93, s.e.m., n=10", "result": "6.56±0.32"}]}
{"smiles": "CC12CC3CC(C)(C1)CC(N)(C3)C2", "note": "[memantine]", "values": [{"measurement": "RGC neuroprotection in models of glaucoma", "setting": "[3]", "result": "exert an RGC neuroprotection"}]}
{"smiles": "NCCS(=O)(=O)O", "note": "[taurine, 2-aminoethanesulfonic acid]", "values": [{"measurement": "decrease in photopic ERG amplitudes", "setting": "retinal ganglion cells [4]", "result": "partially prevented"}, {"measurement": "number of retinal ganglion cells greater than in VGB-treated group without supplementation", "setting": "retinal ganglion cells [2]; VGB-treated rats with taurine supplementation, p<0.001", "result": 84.9, "unit": "%"}, {"measurement": "cell loss rescued by co-incubation with NMDA", "setting": "[1]; 100 μM NMDA plus 1 mM taurine for 4 days", "result": 22, "unit": "%"}, {"measurement": "RGC density (Brn-3a-immunopositive)", "setting": "[1]; 100 μM NMDA plus 1 mM taurine for 4 days, n=23, p<0.05 vs NMDA", "result": "655.7±44.4", "unit": "cells/mm2"}, {"measurement": "decrease in photopic ERG amplitudes on operated eye", "setting": "retinal ganglion cells [5]", "result": "less important than in animals without taurine supplementation"}, {"measurement": "increase in number of surviving cells vs control conditions", "setting": "[6]", "result": 49, "unit": "%"}, {"measurement": "RGC survival at 6 DIV as percentage of that at 1 DIV", "setting": "[6]; control conditions 18.2±1.8%, mean±SEM", "result": "27.2±3.7", "unit": "%"}, {"measurement": "average RGC number (brn3a immunopositive, retinal sections)", "setting": "retinal ganglion cells [7]; taurine 0.1 M in drinking water from 9 to 12 months, n=6, untreated P23H 298±12, Sprague-Dawley control 411±19, mean±SEM", "result": "344±8"}, {"measurement": "RGC loss prevented", "setting": "retinal ganglion cells [7]; taurine 0.1 M in drinking water, P<0.01 vs untreated P23H", "result": 40, "unit": "%"}]}
